From patent US20260356854A1, “Prodrugs of Varenicline and Compounds Containing Vulnerable Amines” (Pfizer Inc., priority 2022, published 2026)
Like-named read-outs stand apart in the source and are kept apart here.

What was measured:
[1] = Nitrosamine formation under nitrosating conditions in solution (UPLC-MS); type: physicochemical; settings: for 10 min. N—NO Level: area % by UV; for 2 h N—NO Level / 42 h N—NO Level: area % by UV (210 nm)
Method: A study was conducted to determine whether varenicline prodrug (Compound 1) forms nitrosamine under nitrosating conditions in solution as compared to varenicline. Regular UPLC-MS detection was utilized. Varenicline free base (0.1 mmol), varenicline tartrate salt (0.1 mmol), and Compound 1 (0.1 mmol) were added to separate vials. THF (2.2 ml) was added to each vial. NaNO2 (0.1 eq) and AcOH (0.1 eq) (added as a 0.1 wt % NaNO2 solution with equivalent molar of acetic acid was also added to each vial to provide a total volume of ~2.5 ml/vial.

[2] = Weight loss on heating (solid-state characterization); type: physicochemical; settings: up to 150 °C; crystalline anhydrous form
Method: (§1) Compound 1 is a crystalline anhydrous solid form as represented by its PXRD pattern (FIG. 1). […] Compound 1 has a melting onset of ~227 °C and is non-hygroscopic, i.e., less than 0.2% moisture uptake at 90% RH/25 °C.

[3] = Moisture uptake / hygroscopicity (solid-state characterization); type: physicochemical; settings: 90% RH/25 °C; crystalline anhydrous form
Method: as §1

[4] = Study to assess the bioequivalence of Compound 1 and varenicline tartrate (oral plasma concentrations); type: in vivo, monkey (non-human primates); settings: monkey, capsule, 0.04 mg eq/kg
Method: FIG. 3 is a graph of the mean monkey plasma concentrations of varenicline following an oral dose of 0.04 mg eq/kg of prodrug (Compound 1) and varenicline tartrate.
A prodrug of varenicline (Compound 1) prepared as described above in Example 1 was orally dosed in capsule form to non-human primates to assess bioequivalence to varenicline tartrate API (Chantix). FIG. 3 is a graph of the mean monkey plasma concentrations of varenicline following an oral dose of 0.04 mg eq/kg of prodrug (Compound 1) and 0.04 mg eq/kg of varenicline tartrate.

[5] = system: chronic cigarette smokers; settings: total dose of 1 mg per day or 2 mg per day; six weeks; initial evidence; cited from earlier work
[6] = system: chronic cigarette smokers; settings: Study 4, cited from earlier work
[7] = system: chronic cigarette smokers; settings: Study 5, cited from earlier work
[8] = system: chronic cigarette smokers; settings: Study 3, patient-directed 0.5 mg QD to 1 mg BID, cited from earlier work
[9] = system: chronic cigarette smokers; settings: Study 2, cited from earlier work; for co-confirmed continuous abstinence during weeks 9 through 12: placebo 12%; for continuously abstinent from one week after TQD through the end of treatment: placebo 8%
[10] = nitrosating conditions: NaNO2 0.1 eq, AcOH 0.1 eq, THF, 10 min
[11] = nitrosating conditions: NaNO2 0.1 eq, AcOH 0.1 eq, THF
[12] = varenicline 1 mg BID compared to bupropion SR or placebo

**Q.** With `Cl.c1cnc2cc3c(cc2n1)C1CNCC3C1` [Varenicline Free base, 5,8,14-triazatetracyclo [10.3.1.0^2,11.0^4,9]hexadeca-2(11),3,5,7,9-pentaene] as the compound, how does the “10 min. N—NO Level” value [1, 10] read?
**A.** Not detected

**Q.** What about the “2 h N—NO Level” value [1, 11] of the same compound?
**A.** Not detected

**Q.** What about the “42 h N—NO Level” value [1, 11] of the same compound?
**A.** Not detected

**Q.** Which results are given for `Cc1ncc2c(c1O)[C@H](N1C[C@H]3C[C@@H](C1)c1cc4nccnc4cc13)OC2` [Compound 1, (R)-6-methyl-1-((6R,10S)-6,7,9,10-tetrahydro-8H-6,10-methanoazepino[4,5-g]quinoxalin-8-yl)-1,3-dihydrofuro[3,4-c]pyridin-7-ol]?
**A.** weight loss [2]: less than 0.1%; nitrosamine formation under nitrosating conditions (in words) ([1]; as compared to varenicline tartrate): does not form nitrosamines; 10 min. N—NO Level [1, 10]: Not detected; 2 h N—NO Level [1, 11]: Not detected.; 42 h N—NO Level [1, 11]: Not detected; hygroscopicity (in words) [3]: non-hygroscopic; moisture uptake [3]: less than 0.2%; prodrug remaining in the systemic circulation ([4]; analyte prodrug): no prodrug remaining in the systemic circulation; bioequivalence (plasma concentration over time) of the varenicline released from the prodrug ([4]; analyte varenicline, vs varenicline tartrate 0.04 mg eq/kg): comparable to varenicline tartrate

**Q.** With `O=C(O)C(O)C(O)C(=O)O.c1cnc2cc3c(cc2n1)[C@@H]1CNC[C@H]3C1` [Varenicline tartrate] as the compound, how does the “10 min. N—NO Level (by MS)” value ([1]; nitrosating conditions: NaNO2 0.1 eq, AcOH 0.1 eq, THF, 10 min, MS detection) read?
**A.** Detectable by MS

**Q.** What about the “10 min. N—NO Level” value [1, 10] of the same compound?
**A.** Not detected by UV

**Q.** What about the “2 h N—NO Level” value [1, 11] of the same compound?
**A.** 0.83 A %

**Q.** And the “42 h N—NO Level” value [1, 11]?
**A.** 5.15 A %

**Q.** Which results are given for `Cl.c1cnc2cc3c(cc2n1)C1CNCC3C1` [varenicline, 5,8,14-triazatetracyclo[10.3.1.0^2,11.0^4,9]hexadeca-2(11),3,5,7,9-pentaene]?
**A.** effectiveness as an aid to smoking cessation (in words) [5]: effective as an aid to smoking cessation; rate of co-confirmed abstinence during weeks 9 through 12, comparison in words [6, 12]: superior; continuously abstinent from one week after TQD through the end of treatment ([6]; varenicline 1 mg BID, placebo 12%): 29%; co-confirmed abstinence during weeks 9 through 12 ([6]; varenicline 1 mg BID, placebo 17%): 44%; rate of co-confirmed abstinence during weeks 9 through 12, comparison in words [7, 12]: superior; continuously abstinent from one week after TQD through the end of treatment ([7]; varenicline 1 mg BID, placebo 11%): 29%; co-confirmed abstinence during weeks 9 through 12 ([7]; varenicline 1 mg BID, placebo 18%): 44%; continuously abstinent from one week after TQD through the end of treatment ([8]; placebo 9%): 29%; co-confirmed continuous abstinence during weeks 9 through 12 ([8]; placebo 12%): 40%; co-confirmed continuous abstinence during weeks 9 through 12 ([9]; 1 mg per day (0.5 mg BID)): Forty five; continuously abstinent from one week after TQD through the end of treatment ([9]; 1 mg per day): 31%; co-confirmed continuous abstinence during weeks 9 through 12 ([9]; 2 mg per day (1 mg BID)): 51%; continuously abstinent from one week after TQD through the end of treatment ([9]; 2 mg per day): 31%
